These results are taken from PMC2752819 (Assay and drug development technologies, 2008).

Where two headings read alike, the source gives them in different places.

For orientation: IC50 means the midpoint of a concentration-inhibition curve. The term inhibition denotes the drop in the measured response relative to a control, in per cent.

The conditions of assay [1]: cited from earlier work.
For the next assay, the target named is T1, MKP-1 (Homo sapiens, UniProt P28562).
T1 sequence (P28562 1-367): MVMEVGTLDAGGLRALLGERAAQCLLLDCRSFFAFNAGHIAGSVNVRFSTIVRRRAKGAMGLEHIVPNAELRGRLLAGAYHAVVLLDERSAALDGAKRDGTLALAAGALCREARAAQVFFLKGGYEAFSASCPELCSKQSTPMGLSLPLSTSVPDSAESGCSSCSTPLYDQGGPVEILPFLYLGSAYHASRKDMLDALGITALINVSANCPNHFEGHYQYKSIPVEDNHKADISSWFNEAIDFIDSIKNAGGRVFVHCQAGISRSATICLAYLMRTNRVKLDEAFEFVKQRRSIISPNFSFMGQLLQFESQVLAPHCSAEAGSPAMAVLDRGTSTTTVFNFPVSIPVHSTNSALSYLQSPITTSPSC
The assay can be described thus: biochemical.

[2] abbreviates: MKP-1 + 1 mM DTT + catalase IC50, 1 mM DTT + 100 U of catalase.
[3] abbreviates: MKP-1 + 25 mM DTT IC50, 25 mM DTT.
Setting [4] is: read-out: MKP-1 + 1 mM DTT % inhibition at 50 μM.
Setting [5] is: read-out: MKP-1 + 1 mM DTT + catalase % inhibition at 50 μM.
[6] abbreviates: read-out: MKP-1 + 25 mM DTT % inhibition at 50 μM.

As for `O=C1C(=O)c2ccccc2-c2ccccc21` [9,10-phenanthrenedione], the “H2O2 generation in the presence of DTT” value in assay [1] is “generate significant amounts of H2O2”.

In the case of `CCn1nc(-c2ccccc2)nc2c(=O)n(C)c(=O)nc1-2` [compound 845167, 1-ethyl-6-methyl-3-phenylpyrimido[5,6-e][1,2,4]triazine-5,7-dione], the values for the concentration for half-maximal inhibition (IC50) at MKP-1 (setting [2]) and on MKP-1 (setting [3]) were more than 50 µM and 4.9 µM, respectively. Moreover, the inhibition at 50 µM at MKP-1 (setting [4]) was 95.6%; at MKP-1 (setting [5]) it was -66.3%; on MKP-1 (setting [6]), 96.2%.

For `N#Cc1c(N)sc(=S)c2c1CCN(Cc1ccccc1)C2` [compound 845964, 3-amino-7-(phenylmethyl)-1-sulfanylidene-6,8-dihydro-5H-thiopyrano[5,4-c]pyridine-4-carbonitrile], the IC50 on MKP-1 (setting [2]) and on MKP-1 (setting [3]) was more than 50 µM each time. In addition, the values for the inhibition at 50 µM on MKP-1 (setting [4]), at MKP-1 (setting [5]) and at MKP-1 (setting [6]) were 95.2%, 47.7% and 35.7%, respectively.

Regarding `CCn1nc(-c2cccs2)nc2c(=O)n(C)c(=O)nc1-2` [compound 850758, 1-ethyl-6-methyl-3-thiophen-2-ylpyrimido[5,6-e][1,2,4]triazine-5,7-dione], the figures for the 50% inhibitory concentration (IC50) on MKP-1 (setting [2]) and at MKP-1 (setting [3]) were more than 50 µM and 4.43 µM, respectively. In addition, the figures for the inhibition at 50 µM on MKP-1 (setting [4]), at MKP-1 (setting [5]) and at MKP-1 (setting [6]) were 94.4%, -92.2% and 98.2%, respectively.

As for `CCCCn1c(NC(=O)c2ccccc2)c(C#N)c2nc3ccccc3nc21` [compound 3712327, N-(1-butyl-3-cyanopyrrolo[5,4-b]quinoxalin-2-yl)benzamide], the half-maximal inhibitory concentration (IC50) at MKP-1 (setting [3]) was more than 50 µM. Also, the inhibition at 50 µM was 79.9% at MKP-1 (setting [4]), 69.9% at MKP-1 (setting [5]) and -5.25% on MKP-1 (setting [6]).

Turning to `Cn1ncnc2c(=O)n(C)c(=O)nc1-2` [compound 4251194, 1,6-dimethylpyrimido[5,6-e][1,2,4]triazine-5,7-dione], the IC50 on MKP-1 (setting [2]) is more than 50 µM; on MKP-1 (setting [3]), 5.68 µM. Further, the inhibition at 50 µM on MKP-1 (setting [4]) was 94.4%; at MKP-1 (setting [5]), -27.2%; at MKP-1 (setting [6]) it was 98%.
